Reference: US20110294853A1, “Bis Aromatic Compounds for Use in the Treatment of Inflammation” (priority 2008, published 2011)

Biological target: T1, Recombinant human LTC4 synthase (Homo sapiens, UniProt Q16873)
T1 construct: made in house; host or cells: Pichia pastoris ('Piccia pastoralis' [sic])
T1 sequence (Q16873 1-150): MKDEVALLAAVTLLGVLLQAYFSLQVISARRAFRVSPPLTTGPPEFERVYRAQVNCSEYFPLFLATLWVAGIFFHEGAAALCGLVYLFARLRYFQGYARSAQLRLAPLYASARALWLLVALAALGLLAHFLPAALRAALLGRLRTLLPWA
Assay: In vitro assay of LTC4 synthase inhibition (HPLC or HTRF detection of LTC4)
Assay type: biochemical
Conditions: inhibitor concentration 10 μM; percentage inhibitions of LTC4
Experimental: In the assay LTC4 synthase catalyses the reaction where the substrate LTA4 methyl ester is converted to the corresponding LTC4 methyl ester. Recombinant human LTC4 synthase is expressed in Piccia pastoralis and the purified enzyme is dissolved in 25 mM Tris-buffer pH 7.8 and stored at −20° C. The assay is performed in phosphate buffered saline (PBS) pH 7.4, supplemented with 5 mM glutathione (GSH). The reaction is terminated by addition of acetonitrile/MeOH/acetic acid (50/50/1). The assay is performed at rt in 96-well plates. Analysis of the formed LTC4 methyl ester is performed with reversed phase HPLC (Waters 2795 utilizing an Onyx Monolithic C18 column). The mobile phase consists of acetonitrile/MeOH/H2O (32.5/30/37.5) with 1% acetic acid pH adjusted with NH3 to pH 5.6, and absorbance measured at 280 nm with a Waters 2487 UV-detector.
The following is added chronologically to each well: • 1. 50 μL assay buffer, PBS with 5 mM GSH. • 2. 0.5 μL inhibitor in DMSO. • 3. 2 μL LTC4 synthase in PBS. The total protein concentration in this solution is 0.025 mg/mL. Incubation of the plate at room temperature for 10 minutes. • 4. 0.5 μL LTA4 methyl ester. Incubation of the plate at rt for 1 min. • 5. 50 μL stop solution. • 80 μL of the incubation mixture is analysed with HPLC.
Alternatively HTRF detection of LTC4 can be used:
In the assay, LTC4 synthase catalyses the reaction where the substrate LTA4 is converted to LTC4. Recombinant human LTC4 synthase is expressed in Piccia pastoralis and the purified enzyme is dissolved in 25 mM Tris-buffer pH 7.8 supplemented with 0.1 mM glutathione (GSH) and stored at −80° C. The assay is performed in phosphate buffered saline (PBS) pH 7.4 and 5 mM GSH in 384-well plates.
The following is added chronologically to each well:
1. 48 μL LTC4 synthase in PBS with 5 mM GSH. The total protein concentration in this solution is 0.5 μg/mL. 2. 1 μL inhibitor in DMSO (final concentration 10 μM). 3. Incubation of the plate at rt for 10 min. 4. 1 μL LTA4 (final concentration 2.5 μM). 5. Incubation of the plate at rt for 5 min. 6. 10 μl of the incubation mixture is analysed using HTRF detection.

## CC(C)(C)c1ccc(C(=O)Nc2ccc(CCc3ccc(NC(=O)c4cccc(C(F)(F)F)c4)c(C(=O)O)c3)cc2C(=O)O)cc1 [2:2, 5-{2-[3-Carboxy-4-(4-tert-butylbenzoylamino)-phenyl]ethyl}-2-(3-trifluoromethylbenzoylamino)benzoic acid]
  inhibition at 10 µM: 100%

## CCCCc1ccc(C(=O)Nc2ccc(OCc3ccc(NC(=O)c4cccc(Cl)c4)c(C(=O)O)c3)cc2C(=O)O)cc1 [3:1, 2-(4-Butylbenzoylamino)-5-[3-carboxy-4-(3-chlorobenzoylamino)benzyloxy]-benzoic acid]
  inhibition at 10 µM: 100%

## Nc1ccccc1C(=O)Nc1ccc(-c2ccc(NC(=O)c3ccccc3N)c(C(=O)O)c2)cc1C(=O)O [Example 1:8, 4,4′-bis(2-aminobenzamido)biphenyl-3,3′-dicarboxylic acid]
  inhibition at 10 µM: 100%

## CCCCc1ccc(C(=O)Nc2ccc(NC(=O)c3ccc(NC(=O)c4ccc(OC(C)C)cc4)cc3)cc2C(=O)O)cc1 [4:1, 2-(4-Butylbenzoylamino)-5-[4-(4-isopropoxy-benzoylamino)benzoyl-amino]-benzoic acid]
  inhibition at 10 µM: 79%

## CCCCc1ccc(S(=O)(=O)Nc2ccc(NS(=O)(=O)c3ccc(Oc4ccccc4Cl)cc3)cc2C(=O)O)cc1 [5:3, 2-(4-Butylphenylsulfonamido)-5-(4-(2-chloro-phenoxy)-phenylsulfonamido)benzoic acid]
  inhibition at 10 µM: 98%

## CCCCc1ccc(C(=O)Nc2ccc(NC(=O)c3ccc(NS(=O)(=O)c4cccc(Cl)c4C)cc3)cc2C(=O)O)cc1 [4:3, 2-(4-Butylbenzoylamino)-5-[4-(3-chloro-2-methylbenzenesulfonylamino)-benzoylamino]-benzoic acid]
  inhibition at 10 µM: 100%

## O=C(O)c1cc(-c2ccc(NS(=O)(=O)c3cccnc3)c(C(=O)O)c2)ccc1NS(=O)(=O)c1cccnc1 [Example 1:5, 4,4′-bis(pyridine-3-sulfonamido)biphenyl-3,3′-dicarboxylic acid]
  inhibition at 10 µM: 69%

## O=C(Nc1ccc(-c2ccc(NC(=O)c3ccccc3)c(C(=O)O)c2)cc1C(=O)O)c1ccccc1 [Example 1:11, 4,4′-bis(benzamido)biphenyl-3,3′-dicarboxylic acid]
  inhibition at 10 µM: 95%

## O=C(O)c1cc(NS(=O)(=O)c2ccc(Oc3ccccc3)cc2)ccc1NS(=O)(=O)c1ccc(OC(F)(F)F)cc1 [5:1, 5-(4-Phenoxyphenylsulfonamido)-2-(4-(trifluoromethoxy)phenylsulfonamido)benzoic acid]
  inhibition at 10 µM: 100%

## O=C(Nc1cccc(Cl)c1)Nc1ccc(-c2ccc(NC(=O)Nc3cccc(Cl)c3)c(C(=O)O)c2)cc1C(=O)O [Example 1:4, 4,4′-bis(3-(3-chlorophenyl)ureido)biphenyl-3,3′-dicarboxylic acid]
  inhibition at 10 µM: 99%

## CCCCc1ccc(S(=O)(=O)Nc2ccc(NS(=O)(=O)c3ccc(Oc4ccccc4)cc3)cc2C(=O)O)cc1 [Example 5:2, 2-(4-Butylphenylsulfonamido)-5-(4-phenoxyphenylsulfonamido)-benzoic acid]
  inhibition at 10 µM: 100%

## O=C(Nc1ccc(C#Cc2ccc(NC(=O)c3ccc(C(F)(F)F)cc3)c(C(=O)O)c2)cc1)c1cccc(C(F)(F)F)c1 [2:5, 2-(4-Trifluoromethylbenzoylamino)-5-[4-(3-trifluoromethylbenzoylamino)-phenylethynyl]-benzoic acid]
  inhibition at 10 µM: 89%

## CCCCOc1ccc(S(=O)(=O)Nc2ccc(NS(=O)(=O)c3ccc(Oc4ccccc4Cl)cc3)cc2C(=O)O)cc1 [5:5, 2-(4-Butoxyphenylsulfonamido)-5-(4-(2-chloro-phenoxy)-phenylsulfonamido)benzoic acid]
  inhibition at 10 µM: 99%

## O=C(Nc1ccc(COc2ccc(NC(=O)c3cccc(Cl)c3)c(C(=O)O)c2)cc1C(=O)O)c1cccc(Cl)c1 [3:2, 2-(3-Chlorobenzoylamino)-5-[3-carboxy-4-(3-chlorobenzoylamino)-benzyloxy]-benzoic acid]
  inhibition at 10 µM: 100%

## O=C(O)c1cc(-c2ccc(NS(=O)(=O)c3ccccc3)c(C(=O)O)c2)ccc1NS(=O)(=O)c1ccccc1 [Example 1:2, 4,4′-bis(phenylsulfonamido)biphenyl-3,3′-dicarboxylic acid]
  inhibition at 10 µM: 92%

## CC(C)(C)c1ccc(C(=O)Nc2ccc(-c3ccc(NC(=O)c4ccc(C(C)(C)C)cc4)c(C(=O)O)c3)cc2C(=O)O)cc1 [Example 1:6, 4,4′-bis(4-tert-butylbenzamido)biphenyl-3,3′-dicarboxylic acid]
  inhibition at 10 µM: 100%

## CCCCOc1ccc(S(=O)(=O)Nc2ccc(NCc3cccc(OCc4ccccc4Cl)c3)cc2C(=O)O)cc1 [6:2, 2-(4-Butoxyphenylsulfonamido)-5-(3-(2-chlorobenzyloxy)benzylamino)benzoic acid]
  inhibition at 10 µM: 100%

## CCCCc1ccc(C(=O)Nc2ccc(NC(=O)c3ccc(NC(=O)c4ccccc4)cc3)cc2C(=O)O)cc1 [4:2, 5-(4-Benzoylaminobenzoylamino)-2-(4-butylbenzoylamino)benzoic acid]
  inhibition at 10 µM: 96%

## O=C(Nc1ccc(CCc2ccc(NC(=O)c3cccc(C(F)(F)F)c3)c(C(=O)O)c2)cc1C(=O)O)c1ccc(C(F)(F)F)cc1 [2:4, 5-{2-[3-Carboxy-4-(4-trifluoromethyl-benzoylamino)-phenyl]ethyl}-2-(3-trifluoromethylbenzoylamino)benzoic acid]
  inhibition at 10 µM: 98%

## O=C(Nc1ccc(CCc2ccc(NC(=O)c3ccc(C(F)(F)F)cc3)c(C(=O)O)c2)cc1)c1cccc(C(F)(F)F)c1 [2:3, 2-(4-Trifluoromethylbenzoylamino)-5-{2-[4-(3-trifluoromethylbenzoylamino)-phenyl]-ethyl}benzoic acid]
  inhibition at 10 µM: 85%

## CC(=O)Oc1ccc(C(=O)Nc2ccc(-c3ccc(NC(=O)c4ccc(OC(C)=O)cc4)c(C(=O)O)c3)cc2C(=O)O)cc1 [Example 1:12, 4,4′-bis(4-acetoxybenzamido)biphenyl-3,3′-dicarboxylic acid]
  inhibition at 10 µM: 97%

## Cc1ccc(S(=O)(=O)Nc2ccc(-c3ccc(NS(=O)(=O)c4ccc(C)cc4)c(C(=O)O)c3)cc2C(=O)O)cc1 [Example 1:9, 4,4′-bis(4-methylphenylsulfonamido)biphenyl-3,3′-dicarboxylic acid]
  inhibition at 10 µM: 89%

## O=C(Cc1ccc(Cl)cc1)Nc1ccc(-c2ccc(NC(=O)Cc3ccc(Cl)cc3)c(C(=O)O)c2)cc1C(=O)O [Example 1:7, 4,4′-bis(2-(4-chlorophenyl)acetamido)biphenyl-3,3′-dicarboxylic acid]
  inhibition at 10 µM: 100%

## O=C(Nc1ccc(-c2ccc(NC(=O)c3cccc(Cl)c3)c(C(=O)O)c2)cc1C(=O)O)c1cccc(Cl)c1 [Example 1:3, 4,4′-bis(3-chlorobenzamido)biphenyl-3,3′-dicarboxylic acid]
  inhibition at 10 µM: 88%

## CCCCc1ccc(S(=O)(=O)Nc2ccc(NS(=O)(=O)c3ccc(Oc4ccccc4OC)cc3)cc2C(=O)O)cc1 [5:4, 2-(4-Butylphenylsulfonamido)-5-(4-(2-methoxy-phenoxy)phenylsulfonamido)benzoic acid]
  inhibition at 10 µM: 100%

## CCCCOc1ccc(S(=O)(=O)Nc2ccc(NCc3cccc(Oc4ccc(C(C)(C)C)cc4)c3)cc2C(=O)O)cc1 [6:1, 2-(4-Butoxyphenylsulfonamido)-5-(3-(4-tert-butylphenoxy)benzylamino)benzoic acid]
  inhibition at 10 µM: 100%

## O=C(O)c1cc(-c2ccc(NC(=O)c3cccc4ccccc34)c(C(=O)O)c2)ccc1NC(=O)c1cccc2ccccc12 [Example 1:10, 4,4′-bis(1-naphthamido)biphenyl-3,3′-dicarboxylic acid]
  inhibition at 10 µM: 98%

## COc1ccc(C(=O)Nc2ccc(CCc3ccc(NC(=O)c4cccc(C(F)(F)F)c4)c(C(=O)O)c3)cc2C(=O)O)cc1 [2:1, 5-{2-[3-Carboxy-4-(4-methoxybenzoylamino)phenyl]ethyl}-2-(3-trifluoromethylbenzoylamino)benzoic acid]
  inhibition at 10 µM: 87%
